Assay results published in patent publication US20260265305A1, “POLYPEPTIDE DERIVATIVE FOR ORAL DELIVERY” (Hangzhou Sciwind Biosciences Co., Ltd., priority 2023, published 2026).
Numbered stars: 1 amine (or outer) side, 2 acyl side, 3 side chain; on linkers, the order of the positions; unused ones are H or OH. Peptide text beside a SMILES is read from it. * marks the point of attachment. C18 diacid = O=C(O)CCCCCCCCCCCCCCCCC(=O)*; C16 diacid = O=C(O)CCCCCCCCCCCCCCC(=O)*; γGlu = O=C(O)[C@H](CCC(=O)[*:2])N[*:1]

Assays:
[1] = target: T1, calcitonin receptor (hCTR) (Homo sapiens, UniProt P30988); test: Calcitonin receptor agonism, CRE-luciferase assay in stably transfected CHO-K1/CALCR/Ga15 cells; type: cell-based; details: incubation of 24 hours; Table 4; read-out: EC50, activity against the calcitonin receptor in cells
T1 construct: host or cells: CHO-K1/CALCR/Ga15 cells, further stably transfected with a CRE-luciferase plasmid
T1 sequence (P30988 25-474): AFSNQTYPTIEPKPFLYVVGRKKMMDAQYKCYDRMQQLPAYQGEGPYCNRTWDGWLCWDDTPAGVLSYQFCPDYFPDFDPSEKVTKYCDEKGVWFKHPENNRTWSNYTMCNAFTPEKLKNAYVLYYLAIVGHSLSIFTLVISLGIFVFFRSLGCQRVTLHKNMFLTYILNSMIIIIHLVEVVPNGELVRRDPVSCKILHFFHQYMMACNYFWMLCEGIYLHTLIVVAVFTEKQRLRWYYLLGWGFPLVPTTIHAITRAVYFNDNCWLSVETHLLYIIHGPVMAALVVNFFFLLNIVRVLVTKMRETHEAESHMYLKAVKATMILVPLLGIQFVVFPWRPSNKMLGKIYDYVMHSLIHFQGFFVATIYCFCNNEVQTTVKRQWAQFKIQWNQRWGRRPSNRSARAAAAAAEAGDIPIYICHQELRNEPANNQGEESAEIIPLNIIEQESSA

[2] = Heat accelerated stability assay of polypeptide solutions (40° C., pH about 7.4), reversed phase chromatography; type: physicochemical; details: 40° C.; for Concentration change on 7 d / Concentration change on 26 d: pH about 7.4, 1 mg/mL; for Concentration change on 7 d / Purity change on 7 d: Day 7; for Concentration change on 26 d / Purity change on 26 d: Day 26; for Purity change on 7 d / Purity change on 26 d: reversed phase chromatography 214 nm; for Purity change on 7 d: purity on 7 d − purity on 0 d; for Purity change on 26 d: purity on 26 d − purity on 0 d
Protocol: A stability test chamber (BINDER GmbH), a 0.01 mg-readability balance (METTLER TOLEDO), a pH meter (METTLER TOLEDO), a biosafety cabinet (ESCO), T2G-II small-sized motor-driven capping machine (Changsha zhongya pharmaceutical equipment co. LTD), a high-speed refrigerated centrifuge (Eppendorf), a sterilizer cabinet (Shinva Medical), Agilent 1260 high-performance liquid chromatographer, and Sepax Bio-C18 4.6*250 mm 3 μm 200 Å reversed phase column were used.
Reagents and consumables included: ultrapure water (18.2 MΩ, self-made), acetonitrile (HPLC grade), trifluoroacetic acid (HPLC grade), sodium dihydrogen phosphate (pharmaceutical grade, Hunan Jiudian Hongyang Pharmaceutical Co., Ltd), hydrochloric acid (pharmaceutical grade, Hunan Er-Kang Pharmaceutical Co., Ltd), sodium hydroxide (Analytical Reagent grade, Hushi®, Sinopharm Chemical Reagent Co., Ltd), vials, rubber stoppers, disposable syringes, and sterile filters.
The lyophilized powder (1 mg/mL) of the polypeptide derivative prepared in accordance with the method of Example 1 was mixed with sodium dihydrogen phosphate (1.42 mg/mL) and dissolved in ultrapure water in the indicated mass-volume ratios. After adjusting pH to about 7.4 with hydrochloric acid/sodium hydroxide, the solution was filtered into a sterilized vial in a clean bench using a 0.22 μm sterile filter. The vial was then capped and placed into the stability test chamber at 40° C. Detections were made on Days 7 (7d) and 26 (26d), and during the assay, changes in the characteristics and properties of the polypeptide were observed and recorded. The sample was then centrifuged for 3 min at 10,000 rpm at 4° C., and the supernatant was transferred to a liquid phase sample vial for detecting the concentration and purity of the polypeptides using liquid phase chromatography described as below, wherein the concentration of the polypeptide=peak area/injection volume/extinction coefficient/60×flow rate, and the purity of the polypeptide=target peak area/total peak area×100%.
Conditions of the reversed phase chromatography Flow rate: 1.0 ml/min; Autosampler temperature: 15° C.; Column temperature: 25° C.; Detection wavelengths: 280 nm and 214 nm; Mobile phase A: 100% H2O+0.05% TFA; Mobile phase B: 100% ACN; and Gradient of elution listed in Table 6: […]

SMILES | EC50 [1] [nM] | Concentration change on 7 d [2] | Concentration change on 26 d [2] [%] | Purity change on 7 d [2] | Purity change on 26 d [2] [%]
CC(C)C[C@H](NC(=O)[C@H](CCCNC(=N)N)NC(=O)CNC(=O)[C@H](CC(C)C)NC(=O)[C@@H](NC(=O)[C@H](C)NC(=O)[C@@H](NC(=O)[C@H](CO)NC(=O)[C@H](CC(C)C)NC(=O)[C@H](CCC(N)=O)NC(=O)[C@H](CO)NC(=O)[C@H](C)NC(=O)CC[C@H](NC(=O)CCCCCCCCCCCCCCCCC(=O)O)C(=O)O)[C@@H](C)O)C(C)C)C(=O)N[C@@H](CO)C(=O)N[C@@H](CC(=O)O)C(=O)N[C@@H](CCC(=O)O)C(=O)N[C@@H](CC(C)C)C(=O)N[C@@H](Cc1c[nH]cn1)C(=O)N[C@@H](CCCNC(=N)N)C(=O)N[C@@H](CC(C)C)C(=O)N[C@@H](CCC(N)=O)C(=O)N[C@@H](CC(=O)O)C(=O)N[C@@H](Cc1ccc(O)cc1)C(=O)N1CCC[C@H]1C(=O)N[C@@H](CCCNC(=N)N)C(=O)N[C@H](C(=O)N[C@@H](CC(=O)O)C(=O)N[C@H](C(=O)NCC(=O)N[C@@H](CO)C(=O)NCC(=O)N[C@@H](CO)C(=O)N1CCC[C@H]1C(N)=O)C(C)C)[C@@H](C)O [M8] ({C18 diacid-γGlu}-ASQLSTAVLGRLSDELHRLQDYPRTDVGSGSP-NH2) | 0.165 | No change (concentration change of less than 1% (denoted as “no change”)) | −6.190 | No change | −3.3
CC(C)C[C@H](NC(=O)[C@H](CCCNC(=N)N)NC(=O)CNC(=O)[C@H](CC(C)C)NC(=O)[C@@H](NC(=O)[C@H](C)NC(=O)[C@@H](NC(=O)[C@H](CO)NC(=O)[C@H](CC(C)C)NC(=O)[C@H](CCC(N)=O)NC(=O)[C@H](CO)NC(=O)[C@H](C)NC(=O)CC[C@H](NC(=O)CCCCCCCCCCCCCCC(=O)O)C(=O)O)[C@@H](C)O)C(C)C)C(=O)N[C@@H](CO)C(=O)N[C@@H](CC(=O)O)C(=O)N[C@@H](CCC(=O)O)C(=O)N[C@@H](CC(C)C)C(=O)N[C@@H](Cc1c[nH]cn1)C(=O)N[C@@H](CCCNC(=N)N)C(=O)N[C@@H](CC(C)C)C(=O)N[C@@H](CCC(N)=O)C(=O)N[C@@H](CC(=O)O)C(=O)N[C@@H](Cc1ccc(O)cc1)C(=O)N1CCC[C@H]1C(=O)N[C@@H](CCCNC(=N)N)C(=O)N[C@H](C(=O)N[C@@H](CC(=O)O)C(=O)N[C@H](C(=O)NCC(=O)N[C@@H](CO)C(=O)NCC(=O)N[C@@H](CO)C(=O)N1CCC[C@H]1C(N)=O)C(C)C)[C@@H](C)O [M9] ({C16 diacid-γGlu}-ASQLSTAVLGRLSDELHRLQDYPRTDVGSGSP-NH2) | 0.12 | −2.280% | −7.796 | −1.67% | −4.82
CC(C)C[C@H](NC(=O)[C@H](CCCNC(=N)N)NC(=O)CNC(=O)[C@H](CC(C)C)NC(=O)[C@@H](NC(=O)[C@H](C)NC(=O)[C@@H](NC(=O)[C@H](CO)NC(=O)[C@H](CC(C)C)NC(=O)[C@H](CCC(N)=O)NC(=O)[C@H](CO)NC(=O)[C@H](C)NC(=O)[C@H](CC(=O)O)NC(=O)CCCCCCCCCCCCCCCCC(=O)O)[C@@H](C)O)C(C)C)C(=O)N[C@@H](CO)C(=O)N[C@@H](CC(=O)O)C(=O)N[C@@H](CCC(=O)O)C(=O)N[C@@H](CC(C)C)C(=O)N[C@@H](Cc1c[nH]cn1)C(=O)N[C@@H](CCCNC(=N)N)C(=O)N[C@@H](CC(C)C)C(=O)N[C@@H](CCC(N)=O)C(=O)N[C@@H](CC(=O)O)C(=O)N[C@@H](Cc1ccc(O)cc1)C(=O)N1CCC[C@H]1C(=O)N[C@@H](CCCNC(=N)N)C(=O)N[C@H](C(=O)N[C@@H](CC(=O)O)C(=O)N[C@H](C(=O)NCC(=O)N[C@@H](CO)C(=O)NCC(=O)N[C@@H](CO)C(=O)N1CCC[C@H]1C(N)=O)C(C)C)[C@@H](C)O [M13] ({C18 diacid}-DASQLSTAVLGRLSDELHRLQDYPRTDVGSGSP-NH2) | 0.085 | −1.895% | −5.520 | −1.15% | −3.76
